This passage reports GI50 and TGI results from PubChem BioAssay (NCI).

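Step 1: Grow cells in 96-well plates. Step 2: Expose to compound for 48 hours at 5 concentrations. Step 3: Interpolate endpoints linearly; if unreached, use highest concentration. GI50 = concentration required for 50% inhibition of growth. TGI denotes the concentration required for complete inhibition of growth.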

Test systems include SN12C renal; ACHN renal; TK-10 renal; UACC-257 melanoma; MALME-3M melanoma; LOX IMVI melanoma; M14 melanoma; SR leukemia; RPMI-8226 leukemia; HCC-2998 colon.
What all share (test): NCI anticancer screen, dose series, 48 h

Consider `CN(C)C1C(=O)C(C(N)=O)=C(O)C2(O)C(=O)C3=C(O)c4c(O)cccc4C(C)(O)C3CC12.[Cl][Sb]([Cl])[Cl]` (centres undefined), for which the GI50 is 3.91 µM in the assay with SN12C renal; 4.75 µM in the assay with ACHN renal; 3.85 µM with TK-10 renal; 3.12 µM in the assay with UACC-257 melanoma; 1.94 µM in the assay with MALME-3M melanoma; 2.63 µM with LOX IMVI melanoma. The GI50 in the assay on M14 melanoma was 3.82 µM; in the assay with SR leukemia, 2.88 µM; with RPMI-8226 leukemia it was 2.41 µM; in the assay on HCC-2998 colon, 3.57 µM. Besides, the TGI with SN12C renal worked out at 14.9 µM; in the assay on ACHN renal, 18.7 µM; in the assay on TK-10 renal it was 14.3 µM; with UACC-257 melanoma, 11.8 µM; with MALME-3M melanoma, 4.6 µM; with LOX IMVI melanoma, 12.3 µM. For the same molecule, the TGI with M14 melanoma was 16.6 µM; with SR leukemia it was 7.36 µM; in the assay with RPMI-8226 leukemia, 5.85 µM; in the assay with HCC-2998 colon it was 14.1 µM.
Turning to `CC(C)N(C(=O)C12C3C4C1C1C4(C#N)C3C12C(=O)O)C(C)C` (centres undefined), the TGI in the assay with SN12C renal, in the assay with ACHN renal, with TK-10 renal, in the assay with UACC-257 melanoma, in the assay with MALME-3M melanoma and with LOX IMVI melanoma was over 100 µM throughout. In addition, the TGI is over 100 µM in the assay with M14 melanoma, 41.4 µM in the assay with SR leukemia, over 66.7 µM in the assay with RPMI-8226 leukemia and over 100 µM in the assay with HCC-2998 colon.
For the molecule `CCc1ccc(Oc2c(-c3ccc(OCc4ccc(Cl)cc4)cc3O)nn(C)c2C(F)(F)F)cc1`, the GI50 with SN12C renal was 1.04 µM; in the assay with ACHN renal, 0.385 µM; with TK-10 renal, 1.23 µM; in the assay with UACC-257 melanoma it was 1.18 µM; in the assay with MALME-3M melanoma it was 1.14 µM; in the assay on LOX IMVI melanoma, 0.416 µM. The GI50 was 1.17 µM in the assay on M14 melanoma, 0.502 µM in the assay on SR leukemia, 0.505 µM in the assay on RPMI-8226 leukemia and 2.44 µM with HCC-2998 colon. The TGI with SN12C renal is 2.48 µM; in the assay on ACHN renal, 1.7 µM; in the assay with TK-10 renal, 3.18 µM; in the assay on UACC-257 melanoma, 3.53 µM; in the assay with MALME-3M melanoma, 2.6 µM; in the assay with LOX IMVI melanoma it was 1.51 µM. In addition, the TGI in the assay with M14 melanoma is 2.68 µM; in the assay on SR leukemia, 3.76 µM; in the assay with RPMI-8226 leukemia, 3.6 µM; in the assay on HCC-2998 colon it was 9.62 µM.
Take `CC(C)(C)O/N=C/c1cc(NC(=S)c2ccccc2)ccc1Cl`: the TGI in the assay on SN12C renal was found to be 26 µM; in the assay with ACHN renal it was 32.7 µM; in the assay with TK-10 renal it was 31.1 µM; with UACC-257 melanoma, 31 µM; with MALME-3M melanoma, 40.6 µM; in the assay on LOX IMVI melanoma, 30.4 µM. Besides, the TGI in the assay on M14 melanoma was found to be 54.1 µM; in the assay on SR leukemia it was 47.2 µM; in the assay with RPMI-8226 leukemia, 41 µM; with HCC-2998 colon, 24.2 µM.
Regarding `C#COc1cccc(Nc2ncnc3cc(NC(=O)[C@@H](C)Cl)ccc23)c1`, the GI50 in the assay on SN12C renal was 16.8 µM; with ACHN renal it was 18.9 µM; with TK-10 renal it was 36.5 µM; in the assay with UACC-257 melanoma it was over 62.5 µM; with MALME-3M melanoma, 20.1 µM; with LOX IMVI melanoma, 4.88 µM. Moreover, the GI50 is 3.92 µM in the assay on M14 melanoma, 3.08 µM with SR leukemia, 13.8 µM in the assay on RPMI-8226 leukemia and 13.9 µM with HCC-2998 colon. Further, the TGI with SN12C renal, in the assay on ACHN renal, in the assay with TK-10 renal, with UACC-257 melanoma, with MALME-3M melanoma and in the assay with LOX IMVI melanoma was over 62.5 µM throughout. The TGI with M14 melanoma, in the assay with SR leukemia, with RPMI-8226 leukemia and with HCC-2998 colon was over 62.5 µM throughout.
On to `O=C(Nc1nc2ccc(S(=O)(=O)Nc3ccc(C4(C(F)(F)F)CC4)cc3)cc2[nH]1)c1cnccn1`, for which the GI50 in the assay with SN12C renal is 4.46 µM; with ACHN renal, 4.39 µM; in the assay on TK-10 renal, 8.16 µM; in the assay with UACC-257 melanoma, 10.6 µM; with MALME-3M melanoma, 1.66 µM; in the assay on LOX IMVI melanoma, 1.62 µM. Further, the GI50 in the assay with M14 melanoma is 1.12 µM; in the assay on SR leukemia it was 0.359 µM; in the assay on RPMI-8226 leukemia, 1.16 µM; in the assay on HCC-2998 colon it was 3.61 µM. In addition, the TGI in the assay with SN12C renal stood at 17.6 µM; with ACHN renal, 18.2 µM; with TK-10 renal, 22.5 µM; in the assay with UACC-257 melanoma, 23.8 µM; in the assay with MALME-3M melanoma, 15.5 µM; with LOX IMVI melanoma it was 20.1 µM. Further, the TGI was 11.1 µM with M14 melanoma, 2.96 µM in the assay on SR leukemia, 5.39 µM with RPMI-8226 leukemia and 17.7 µM in the assay with HCC-2998 colon.
Regarding `OCC1OC(OC2(CO)OC(CO)C(O)C2O)C(O)C(O)C1O` (centres undefined), the GI50 with SN12C renal, in the assay on ACHN renal, in the assay with TK-10 renal, with UACC-257 melanoma, with MALME-3M melanoma and in the assay on LOX IMVI melanoma was over 100 µM throughout. In addition, the GI50 in the assay with M14 melanoma, in the assay with SR leukemia, in the assay on RPMI-8226 leukemia and in the assay on HCC-2998 colon was over 100 µM each time. Besides, the TGI with SN12C renal, with ACHN renal, in the assay on TK-10 renal, in the assay on UACC-257 melanoma, in the assay on MALME-3M melanoma and in the assay on LOX IMVI melanoma was over 100 µM throughout. For the same molecule, the TGI in the assay with M14 melanoma, with SR leukemia, in the assay with RPMI-8226 leukemia and in the assay on HCC-2998 colon was over 100 µM in each case.
As to `N#CN1CC[C@H](C(=O)Nc2ncc(-c3ccccc3)s2)C1`, the GI50 was 0.471 µM in the assay on SN12C renal; 0.562 µM with ACHN renal; 1.19 µM in the assay with TK-10 renal; 1.52 µM in the assay on UACC-257 melanoma; 0.232 µM in the assay with MALME-3M melanoma; 0.267 µM in the assay on LOX IMVI melanoma. Also, the GI50 in the assay with M14 melanoma was 0.495 µM; in the assay with SR leukemia, 0.222 µM; in the assay on RPMI-8226 leukemia, 0.27 µM; with HCC-2998 colon it was 1.09 µM. In addition, the TGI in the assay on SN12C renal was 7.24 µM; in the assay on ACHN renal, 2.49 µM; with TK-10 renal it was 2.99 µM; with UACC-257 melanoma, 3.73 µM; in the assay with MALME-3M melanoma it was 1.42 µM; in the assay with LOX IMVI melanoma, 1.65 µM. The TGI in the assay with M14 melanoma is 2.22 µM; in the assay on SR leukemia, 1.29 µM; with RPMI-8226 leukemia it was 0.854 µM; with HCC-2998 colon, 2.58 µM.
Consider `C[n+]1cn(CC(=O)c2ccccc2)c(C(N)=O)c1N`, for which the TGI in the assay with SN12C renal, with ACHN renal, in the assay with TK-10 renal, in the assay with UACC-257 melanoma, with MALME-3M melanoma and in the assay on LOX IMVI melanoma was over 100 µM throughout. Further, the TGI in the assay with M14 melanoma, in the assay with SR leukemia, in the assay with RPMI-8226 leukemia and with HCC-2998 colon was over 100 µM each time.
As to `O=[N+]([O-])/C=C/c1ccc2ccccc2c1`, the TGI with SN12C renal was determined as 22.7 µM; in the assay on ACHN renal, 4.17 µM; with TK-10 renal, 25.8 µM; in the assay on UACC-257 melanoma, 6.63 µM; with MALME-3M melanoma it was 33.9 µM; in the assay on LOX IMVI melanoma, 7.81 µM. For the same molecule, the TGI with M14 melanoma is over 23.7 µM; with SR leukemia it was over 100 µM; with RPMI-8226 leukemia, over 100 µM; in the assay on HCC-2998 colon it was 0.678 µM.
Turning to `CCC(Oc1ccc(OC)c2c1C(=O)CCC2)C(=O)O` (centres undefined), the TGI in the assay with SN12C renal, in the assay on ACHN renal, in the assay on TK-10 renal, in the assay with UACC-257 melanoma, in the assay with MALME-3M melanoma and in the assay with LOX IMVI melanoma was over 100 µM in each case. Also, the TGI in the assay on M14 melanoma, with SR leukemia, in the assay on RPMI-8226 leukemia and in the assay with HCC-2998 colon was over 100 µM throughout.
On to `Nc1c(C(=O)Nc2ccccc2)sc2nc3c(cc12)C(=O)CCC3`, for which the GI50 with SN12C renal is 6.2 µM; in the assay with ACHN renal, 0.948 µM; with TK-10 renal it was 0.807 µM; in the assay with UACC-257 melanoma, 0.57 µM; in the assay with MALME-3M melanoma, 4.66 µM; in the assay on M14 melanoma, 0.401 µM. In addition, the GI50 in the assay with SR leukemia was 0.533 µM; in the assay on RPMI-8226 leukemia, 0.303 µM; in the assay on HCC-2998 colon, 1.2 µM. For the same molecule, the TGI in the assay on SN12C renal, in the assay on ACHN renal, in the assay on TK-10 renal, in the assay with UACC-257 melanoma, in the assay with MALME-3M melanoma and with LOX IMVI melanoma was over 100 µM each time. Also, the TGI with M14 melanoma is over 32.9 µM; with SR leukemia, over 100 µM; in the assay on RPMI-8226 leukemia it was over 100 µM; in the assay on HCC-2998 colon it was over 100 µM.
